Data published in PMC4863456 (Journal of Chemical Information and Modeling, 2015).

What was measured:
CB1 M6.55A mutation [1] = experiment: Published binding data, M6.55A mutation; settings: M6.55 to alanine
[2] = system: CB1 W5.43 mutated to alanine; settings: W5.43 to alanine; cited from earlier work
[3] = system: CB1 K3.28 mutated to alanine; settings: K3.28 to alanine; cited from earlier work
CB1 M6.55A mutation [4] = settings: M6.55 to alanine; cited from earlier work

For `Cc1c(C(=O)NN2CCCCC2)nn(-c2ccc(Cl)cc2Cl)c1-c1ccc(Cl)cc1` [rimonabant, N-(Piperidin-1-yl)-5-(4-Chlorophenyl)-1-(2,4-Dichlorophenyl)-4-Methyl-1H -Pyrazole-3-Carboxamide], the “decrease in binding affinity upon mutation, as energy” value (CB1 M6.55A mutation [1]) is listed as 0.65 kcal/mol, the “decrease in experimental binding affinity upon mutation” value [2] is listed as over 1000 fold and the “decrease in experimental binding affinity upon mutation” value [3] is listed as 17.2 fold. For the same compound, the “decrease in binding affinity upon mutation” value (CB1 M6.55A mutation [4]) was 3 fold.
